Laboratory results from paper PMC5618506, “CCR7 Sulfotyrosine Enhances CCL21 Binding” (International Journal of Molecular Sciences, 2017).
One block for each molecule: values may come before it. Non-standard residues stand in square brackets, D forms with d. Residues, ends and D or L forms follow the SMILES beside them. No end group written: not given here. sY = N[C@@H](Cc1ccc(OS(=O)(=O)O)cc1)C(=O)O; pY = N[C@@H](Cc1ccc(OP(=O)(O)O)cc1)C(=O)O

What was measured:
CCL21 = target: T1, CCL21 (Homo sapiens, UniProt O00585); assay: 15N-1H HSQC NMR titration of U-15N CCL21 with CCR7 N-terminal peptides; Kd by nonlinear fitting of chemical shift perturbations; assay type: binding; details: for Kd: 100 μM U-15N CCL21 titrated with peptide, NMR buffer 25 mM deuterated MES, 10% D2O, 0.2% NaN3, pH 6.0, 25 °C, fit of all CCL21 residues with significant chemical shift perturbations (11–30 sY17: only residues that did not broaden beyond detection), ± CI at 95% confidence level; for Kd, CCL21 K69 only (representative residue): nonlinear fitting of combined amide chemical shift perturbations of CCL21 residue K69 versus peptide concentration, 100 μM U-15N CCL21, pH 6.0, 25 °C
T1 construct: Our previous NMR studies defined the 3D structure of full-length CCL21; made in house
T1 sequence (O00585 24-134): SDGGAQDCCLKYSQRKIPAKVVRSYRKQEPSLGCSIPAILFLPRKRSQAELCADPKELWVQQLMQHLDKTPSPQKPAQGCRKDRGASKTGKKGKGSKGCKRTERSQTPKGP
Experimental: NMR spectroscopic data were collected at the NMR facility at the Medical College of Wisconsin on a Bruker Avance 600 MHz spectrometer equipped with ^1H/^13C/^15N Cryoprobe® at 25 °C. Chemical shift assignments for CCR7 1–30 C24A (H, N, C, C^α, and most side chain carbons) were determined by standard techniques using 1.05 mM U-^15N/^13C labeled CCR7 1–30 C24A in NMR buffer (25 mM deuterated MES, 10% D2O, 0.2% NaN3, pH 6.0). To determine CCR7 N-terminal residues likely involved in CCL21 binding, 200 μM U-^15N/^13C CCR7 1–30 C24A in NMR buffer was monitored using ^15N-^1H HSQC spectra while titrating with increasing CCL21 concentrations (molar ratios of 1:0, 1:0.25, 1:0.5, 1:0.75, 1:1, 1:1.5, 1:2 and 1:2.5 of CCR7:CCL21).
To identify the impact of CCR7 tyrosine modification on CCL21 binding, 100 μM of U-^15N CCL21 in NMR buffer was titrated with increasing concentrations of the indicated CCR7 peptides and monitored using ^15N-^1H HSQC spectra, as previously described. […] Combined amide chemical shift perturbations (Δδ) were computed as [(5ΔδH)^2+(ΔδN)^2]^1/2, where ΔδH and ΔδN are the changes in backbone amide ^1H and ^15N chemical shifts in ppm, respectively. Dose-dependent changes in chemical shift perturbations upon titration with the various CCR7 peptides were used to determine dissociation constant (Kd) values through nonlinear fitting to an equation that takes into account ligand depletion, as previously described.

CCR7 5–11 sY8 = target: T2, CCR7 5–11 sY8 (Homo sapiens, N-terminus assumed; SMILES CC[C@H](C)[C@H](NC(=O)[C@H](Cc1ccc(OS(=O)(=O)O)cc1)NC(=O)[C@H](CC(=O)O)NC(=O)[C@H](CC(=O)O)NC(=O)[C@@H](N)[C@@H](C)O)C(=O)NCC(=O)N[C@@H](CC(=O)O)C(N)=O); assay: NMR
T2 chain: TDD[sY]IGD-NH2

CCR7 5–11 = target: T3, CCR7 5–11 (Homo sapiens); assay: NMR
T3 chain: TDDYIGD-NH2

CCR7 5–11 pY8 = target: T4, CCR7 5–11 pY8 (Homo sapiens, N-terminus assumed; SMILES CC[C@H](C)[C@H](NC(=O)[C@H](Cc1ccc(OP(=O)(O)O)cc1)NC(=O)[C@H](CC(=O)O)NC(=O)[C@H](CC(=O)O)NC(=O)[C@@H](N)[C@@H](C)O)C(=O)NCC(=O)N[C@@H](CC(=O)O)C(N)=O); assay: NMR
T4 chain: TDD[pY]IGD-NH2

Molecule: CC[C@H](C)[C@H](NC(=O)[C@H](Cc1ccc(OP(=O)(O)O)cc1)NC(=O)[C@H](CC(=O)O)NC(=O)[C@H](CC(=O)O)NC(=O)[C@@H](N)[C@@H](C)O)C(=O)NCC(=O)N[C@@H](CC(=O)O)C(N)=O [CCR7 5–11 pY8] (H-TDD[pY]IGD-NH2)
Kd (CCL21): 240 ± 60 µM

Molecule: CC(C)C[C@H](NC(=O)[C@H](CO)NC(=O)[C@H](CCC(=O)O)NC(=O)[C@H](Cc1ccccc1)NC(=O)[C@H](CC(C)C)NC(=O)[C@@H](NC(=O)[C@H](Cc1ccc(OP(=O)(O)O)cc1)NC(=O)[C@H](CC(=O)O)NC(=O)[C@@H](NC(=O)[C@@H](NC(=O)[C@@H](NC(=O)[C@H](CC(N)=O)NC(=O)[C@@H](N)CC(=O)O)[C@@H](C)O)[C@@H](C)O)C(C)C)[C@@H](C)O)C(=O)N[C@@H](C)C(=O)N[C@@H](CO)C(=O)N[C@@H](CCCCN)C(=O)N[C@@H](CCCCN)C(=O)N[C@@H](CC(=O)O)C(=O)N[C@H](C(=O)N[C@@H](CCCNC(=N)N)C(N)=O)C(C)C [CCR7 11–30 pY17] (H-DNTTVD[pY]TLFESLASKKDVR-NH2)
Kd (CCL21): 1700 µM

Molecule: TDDYIGD-NH2 [CCR7 5–11]
Kd (CCL21): 700 ± 300 µM | Kd, CCL21 K69 only (representative residue) (CCL21): 530 ± 40 µM

B1: CCL21 (protein)
chain: T1 sequence (O00585 24-134)
Kd (CCR7 5–11 sY8): 140 µM | Kd (CCR7 5–11): 700 µM | Kd (CCR7 5–11 pY8): 240 µM

Now from value to molecule:

Kd (CCL21): 140 ± 40 µM | Kd, CCL21 K69 only (representative residue) (CCL21): 180 ± 40 µM
Molecule: CC[C@H](C)[C@H](NC(=O)[C@H](Cc1ccc(OS(=O)(=O)O)cc1)NC(=O)[C@H](CC(=O)O)NC(=O)[C@H](CC(=O)O)NC(=O)[C@@H](N)[C@@H](C)O)C(=O)NCC(=O)N[C@@H](CC(=O)O)C(N)=O [CCR7 5–11 sY8] (H-TDD[sY]IGD-NH2)

Kd (CCL21): 480 ± 70 µM
Molecule: CC(C)C[C@H](NC(=O)[C@H](CO)NC(=O)[C@H](CCC(=O)O)NC(=O)[C@H](Cc1ccccc1)NC(=O)[C@H](CC(C)C)NC(=O)[C@@H](NC(=O)[C@H](Cc1ccc(OS(=O)(=O)O)cc1)NC(=O)[C@H](CC(=O)O)NC(=O)[C@@H](NC(=O)[C@@H](NC(=O)[C@@H](NC(=O)[C@H](CC(N)=O)NC(=O)[C@@H](N)CC(=O)O)[C@@H](C)O)[C@@H](C)O)C(C)C)[C@@H](C)O)C(=O)N[C@@H](C)C(=O)N[C@@H](CO)C(=O)N[C@@H](CCCCN)C(=O)N[C@@H](CCCCN)C(=O)N[C@@H](CC(=O)O)C(=O)N[C@H](C(=O)N[C@@H](CCCNC(=N)N)C(N)=O)C(C)C [CCR7 11–30 sY17] (H-DNTTVD[sY]TLFESLASKKDVR-NH2)

Kd (CCL21): 6800 µM
Molecule: DNTTVDYTLFESLASKKDVR-NH2 [CCR7 11–30]
